# From ChEMBL document CHEMBL1201862, “PubChem BioAssay data set” (2004)
# Calls of active or inactive are those of the source.
# Key:
# HEK293 [1] = assay: cells; format: functional, cell-based; conditions: Homo sapiens
# HEK293 [2] = assay: cells; format: functional, cell-based; conditions: Homo sapiens; remark: listed apart in the source
# INS1 = assay: beta cell apoptosis inhibitors, cytokine rescue, dose response, luminescence, retest (AID 449756); format: functional, cell-based;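 further: cell death triggered by IL-1 beta plus TNF-alpha plus IFN-gamma mixture; protective hits raise ATP signal compared with cytokine alone wells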
# HEK293 [3] = assay: cells; format: functional, cell-based; conditions: Homo sapiens; remark: listed apart in the source
# [4] = reduction of Shn3 3'UTR firefly luciferase signal, dose response, Schnurri-3 inhibitor project, cell-based, Clone20 osteoblasts, cherry-pick, set 2 (AID 720490); format: functional;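 further: actives lower the luminescence signal as inhibitors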
# [5] = HepG2 cell cytotoxicity, dose response, cytotoxicity control for Shn3 inhibitor project, CellTiter-Glo, cherry-picked (AID 624134); format: functional, cell-based
# [6] = target: Nucleotide-binding oligomerization domain-containing protein 2 (Homo sapiens, UniProt Q9HC29); assay: NOD2 signaling inhibitors, cell-based, luminescence, uHTS, HEK293 (AID 1566); format: functional
# HEK293 [7] = assay: NOD1 signaling inhibitors, primary screen, cell-based, luminescence, uHTS (AID 1578); format: functional; conditions: Homo sapiens
# [8] = Shn3 3'UTR reporter inhibitors, dose response, cell-based, Clone20 osteoblasts, firefly luciferase, cherry-picked (AID 624132); format: functional;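 further: firefly luciferase luminescence from reporter carrying the Shn3 3'UTR in osteoblasts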
# HEK293 [9] = assay: NOD2 signaling inhibitors in MDP-stimulated cells, cell-based, uHTS, luminescence (AID 2001); format: functional; conditions: Homo sapiens
# Prothrombin = Prothrombin (Homo sapiens, UniProt P00734); assay: Thrombin 1536 HTS Dose Response Confirmation. [Related pubchem assays: 1046 (Thrombin 1536 HTS; hits were confirmed in this assay)]; format: functional
# [10] = YAP1 pathway inhibition via CTGF transcript levels, dose response, cell-based, DLD1 colon cancer, RT-qPCR, cherry-pick (AID 1053122); format: functional; conditions: Cancer cell lines
# [11] = target: COUP transcription factor 2 (Homo sapiens, UniProt P24468); assay: Luminescence-based cell-based high throughput dose response assay to identify inhibitors of COUP-TFII (NR2F2).; format: functional;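 further: HEK293 cells transiently cotransfected with COUP-TFII expression vector and reporter; luciferase reporter luminescence driven by COUP-TFII from the pX2-168 reporter plasmid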
# [12] = Luminescence-based counterscreen assay for KLF5 inhibitors: dose response cell-based high throughput screening assay to identify cytotoxic compounds using the IEC-6 intestinal epithelial cell line. [Related pubchem assays: 1700 (Primary screen.), 1834 (Confirmation screen.), 1858 (Summary AID.), 1905 (Counterscreen.)]; format: functional
# [13] = Luminescence Cell-Based Dose Confirmation HTS to Identify Inhibitors of Platelet Dense Granule Release. [Related pubchem assays: 1663 (Primary HTS), 1678 (Summary of Project)]; format: functional
# Paired box protein Pax-8 = Paired box protein Pax-8 (Homo sapiens, UniProt Q06710); assay: inhibitors of PAX8-driven TPO luciferase reporter, dose response, RMG-I cells, cherry-pick (AID 687027); format: functional, cell-based;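 further: luciferase reporter driven by Pax8 target thyroperoxidase promoter measured by SteadyGlo luminescence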
# [14] = target: Luciferin 4-monooxygenase (Photinus pyralis, UniProt P08659); assay: firefly luciferase enzyme inhibitors, dose response, biochemical, luminescence (AID 1891)
# [15] = P. falciparum late gametocyte killing, dose response, luminescence (AID 1117278); format: functional, cell-based;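 further: gametocytes exposed to compound for 24 hours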
# [16] = Jurkat T cell cytotoxicity, dose response, cytotoxicity control for P. falciparum gametocyte viability project, luminescence (AID 1117277); format: functional, cell-based;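 further: potency reflects loss of cellular ATP meaning fewer viable cells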
# [17] = inhibitors of PGC1a acetylation in cells, dose response, cell-based, cherry-picked samples (AID 720514); format: functional;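 further: potency may reflect raised or lowered acetylation signal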
# Cytochrome P450 3A4 = Cytochrome P450 3A4 (Homo sapiens, UniProt P08684);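 further: CYP3A4 tested as one member of a cytochrome P450 panel screen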
# Cytochrome P450 2C9 = Cytochrome P450 2C9 (Homo sapiens, UniProt P11712)
# [18] = cytotoxicity in HPDE-C7 cells, cell-based, fluorescence, HTS (AID 430); format: functional; conditions: Homo sapiens
# [19] = cytotoxicity in KRAS-transformed pancreatic duct cells, primary screen, cell-based, fluorescence, HTS (AID 431); format: functional; conditions: Homo sapiens;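 further: cell line used: HPDE-C7K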
# [20] = cytotoxicity in OVCAR8 ovarian cancer cells, dose response, PAX8 project, cell-based, plate reader, dry powder samples (AID 743197); format: functional; conditions: OVCAR-8
# [21] = NIH:OVCAR-3 ovarian cancer cell cytotoxicity, dose response, PAX8 inhibitor project, plate reader, dry powder samples (AID 743044); format: functional, cell-based
# [22] = IGROV1 ovarian cancer cell cytotoxicity, dose response, PAX8 inhibitor project, plate reader, dry powder samples (AID 743043); format: functional, cell-based; conditions: IGROV-1
# [23] = non-specific cell cytotoxicity, dose response, cytotoxicity control for PAX8 inhibitor project, plate reader, dry powder samples (AID 743021); format: functional, cell-based
# [24] = A2780 ovarian cancer cell cytotoxicity, dose response, cytotoxicity control, plate reader, dry powder samples (AID 743046); format: functional, cell-based
# [25] = IOSE-T80 ovarian epithelial cell cytotoxicity, dose response, cytotoxicity control for PAX8 inhibitor project, plate reader, dry powder samples (AID 743045); format: functional, cell-based
# [26] = MC4R antagonists, dose response, counter-screen for LGR2 antagonist project, cell-based, plate reader, cherry pick (AID 743444); format: functional;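 further: transfected HEK 293 cells stimulated with alpha-MSH peptide; potency of inhibitors of the alpha-MSH evoked signal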
# [27] = HepG2 cell cytotoxicity, dose response, cytotoxicity control, plate reader, cherry-pick, antagonist series (AID 743416); format: functional, cell-based
# [28] = LGR2 antagonists, dose response, cell-based, HEK293, CRE-luciferase reporter, cherry pick, set 2 (AID 743343); format: functional;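 further: transfected cells were stimulated with diluted bursicon conditioned medium after compound addition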
# [29] = target: T1, Microphthalmia-associated transcription factor (Homo sapiens, UniProt O75030); assay: TRPM1 promoter luciferase signal decrease, dose response, MITF inhibitor project, cell-based, SK-MEL-5, cherry-picked, set 3 (AID 493073); format: functional
# T1 sequence (O75030 whole entry): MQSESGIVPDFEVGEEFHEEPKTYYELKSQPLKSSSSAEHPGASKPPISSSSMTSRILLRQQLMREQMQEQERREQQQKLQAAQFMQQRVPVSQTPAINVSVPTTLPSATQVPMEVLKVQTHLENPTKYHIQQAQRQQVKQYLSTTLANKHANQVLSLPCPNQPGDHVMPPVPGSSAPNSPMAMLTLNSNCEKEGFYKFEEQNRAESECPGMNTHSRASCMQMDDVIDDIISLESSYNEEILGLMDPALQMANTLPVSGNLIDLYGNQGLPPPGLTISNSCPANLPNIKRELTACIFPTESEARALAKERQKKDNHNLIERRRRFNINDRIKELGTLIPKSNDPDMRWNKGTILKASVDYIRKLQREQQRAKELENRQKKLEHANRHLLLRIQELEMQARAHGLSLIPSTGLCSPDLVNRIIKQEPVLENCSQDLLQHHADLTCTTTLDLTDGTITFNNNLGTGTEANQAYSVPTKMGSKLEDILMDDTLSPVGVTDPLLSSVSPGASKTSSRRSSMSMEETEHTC
# [30] = control 3'UTR Renilla luciferase suppression, dose response, counter-screen for Shn3 inhibitor project, cell-based, Clone20-Shn3RL, cherry-picked (AID 624133); format: functional
# [31] = HEK293 cell cytotoxicity, dose response, cytotoxicity control, plate reader, cherry-picked samples (AID 743446); format: functional, cell-based
# A-375 = assay: A375 melanoma cell viability reduction, dose response, counter-screen for MITF modulator project, cherry-pick samples, set 2 (AID 540335); format: functional, cell-based; conditions: Homo sapiens
# [32] = Luminescence Cell-Based Dose Retest to Confirm Inhibitors of Cancer Stem Cells. [Related pubchem assays (depositor defined):AID2717, AID2721]; format: functional; conditions: Homo sapiens
# [33] = A549 cell cytotoxicity, dose response, cytotoxicity control, plate reader, cherry-pick, antagonist series (AID 743412); format: functional, cell-based
# [34] = target: Voltage-gated inwardly rectifying potassium channel KCNH2 (Homo sapiens, UniProt Q12809); assay: hERG protection from proarrhythmic block, potency, dose response, cell-based, thallium flux (AID 2121); format: ADME
# [35] = NIH-3T3 fibroblast cytotoxicity, dose response, cytotoxicity control, cell-based, fluorescence, Alamar Blue, secondary assay (AID 2327); format: functional;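 further: NIH-3T3 mouse fibroblasts cultured with fluconazole at 8 µg/mL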
# [36] = C. albicans growth with fluconazole, confirmation, fluorescence, retest (AID 2467); format: functional, cell-based
# [37] = cytotoxicity in HEK-293T cells, dose response, cytotoxicity control for BCR NF-kB inhibitor project, luminescence, B-cell screen hits (AID 489021); format: functional, cell-based;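 further: HEK-293T cells carrying an NF-kB luciferase reporter; cells exposed to compound for about 14 hours before viability readout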
# [38] = human group III sPLA2 inhibitors, dose response, biochemical, QFRET, IC50 (AID 743457);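 further: green fluorescence rise as the enzyme cleaves BODIPY PC-A2 in liposomes; potency for inhibition of the enzyme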
# Beta-galactosidase = Beta-galactosidase (Escherichia coli, UniProt Q8VNN2); assay: beta-galactosidase enzyme inhibitors and activators, dose response, artefact control for CCR6 antagonist project, biochemical, E. coli enzyme, set 3 (AID 504712); format: functional
# Cytochrome P450 1A2 = target: T2, Cytochrome P450 1A2 (Homo sapiens, UniProt P05177);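 further: PubChem cytochrome P450 panel assay, CYP1A2 panel member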
# T2 sequence (P05177 whole entry): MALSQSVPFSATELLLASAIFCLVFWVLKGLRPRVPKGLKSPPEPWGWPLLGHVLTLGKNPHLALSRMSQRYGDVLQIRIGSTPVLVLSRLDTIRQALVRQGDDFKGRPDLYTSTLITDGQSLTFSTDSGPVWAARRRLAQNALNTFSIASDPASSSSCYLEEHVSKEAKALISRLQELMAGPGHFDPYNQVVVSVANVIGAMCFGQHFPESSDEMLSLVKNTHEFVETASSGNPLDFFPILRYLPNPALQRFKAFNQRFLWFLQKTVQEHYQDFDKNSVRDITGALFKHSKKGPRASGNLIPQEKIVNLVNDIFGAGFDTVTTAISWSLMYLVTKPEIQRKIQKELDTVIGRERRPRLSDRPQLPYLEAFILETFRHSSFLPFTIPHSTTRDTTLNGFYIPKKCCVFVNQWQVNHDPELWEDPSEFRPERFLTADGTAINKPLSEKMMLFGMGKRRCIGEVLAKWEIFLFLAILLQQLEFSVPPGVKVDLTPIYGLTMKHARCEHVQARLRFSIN
# [39] = Glucagon-like peptide 1 release potency, NCI-H716 cell line, dose-response, half-maximal inhibitory concentration (AID 1117344); format: functional, cell-based
# Cytochrome P450 2D6 = Cytochrome P450 2D6 (Homo sapiens, UniProt P10635);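 further: CYP2D6 member of a cytochrome P450 panel assay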
# [40] = half-maximal inhibitory concentration for glucagon-like peptide-1 release, STC-1 cell line, dose-response (AID 1117345); format: functional, cell-based
# Sequence of Paired box protein Pax-8 (Q06710 whole entry): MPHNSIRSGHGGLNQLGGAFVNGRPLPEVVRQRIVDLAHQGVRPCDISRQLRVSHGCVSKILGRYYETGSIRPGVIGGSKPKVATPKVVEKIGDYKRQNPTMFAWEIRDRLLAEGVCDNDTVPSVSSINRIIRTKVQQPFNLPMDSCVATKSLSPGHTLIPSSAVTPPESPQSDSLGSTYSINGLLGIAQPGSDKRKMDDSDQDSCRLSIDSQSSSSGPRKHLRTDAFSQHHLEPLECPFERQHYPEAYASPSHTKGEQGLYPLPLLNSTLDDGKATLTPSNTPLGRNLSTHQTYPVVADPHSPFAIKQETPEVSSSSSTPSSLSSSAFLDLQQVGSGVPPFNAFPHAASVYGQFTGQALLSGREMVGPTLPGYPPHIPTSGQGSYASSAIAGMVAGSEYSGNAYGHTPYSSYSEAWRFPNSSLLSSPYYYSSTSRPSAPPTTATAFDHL
# Sequence of COUP transcription factor 2 (P24468 whole entry): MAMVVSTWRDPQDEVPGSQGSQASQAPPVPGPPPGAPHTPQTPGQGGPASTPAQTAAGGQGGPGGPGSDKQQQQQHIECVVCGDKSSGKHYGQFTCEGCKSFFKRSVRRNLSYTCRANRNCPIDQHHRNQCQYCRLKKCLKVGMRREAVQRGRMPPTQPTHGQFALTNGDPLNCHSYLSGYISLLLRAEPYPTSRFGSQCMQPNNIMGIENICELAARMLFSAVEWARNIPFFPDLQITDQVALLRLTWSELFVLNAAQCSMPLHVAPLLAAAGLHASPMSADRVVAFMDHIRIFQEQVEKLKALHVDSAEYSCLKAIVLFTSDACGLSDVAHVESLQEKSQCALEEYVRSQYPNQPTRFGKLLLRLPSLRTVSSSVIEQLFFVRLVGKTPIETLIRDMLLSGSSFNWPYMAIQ
# Sequence of Voltage-gated inwardly rectifying potassium channel KCNH2 (Q12809 whole entry): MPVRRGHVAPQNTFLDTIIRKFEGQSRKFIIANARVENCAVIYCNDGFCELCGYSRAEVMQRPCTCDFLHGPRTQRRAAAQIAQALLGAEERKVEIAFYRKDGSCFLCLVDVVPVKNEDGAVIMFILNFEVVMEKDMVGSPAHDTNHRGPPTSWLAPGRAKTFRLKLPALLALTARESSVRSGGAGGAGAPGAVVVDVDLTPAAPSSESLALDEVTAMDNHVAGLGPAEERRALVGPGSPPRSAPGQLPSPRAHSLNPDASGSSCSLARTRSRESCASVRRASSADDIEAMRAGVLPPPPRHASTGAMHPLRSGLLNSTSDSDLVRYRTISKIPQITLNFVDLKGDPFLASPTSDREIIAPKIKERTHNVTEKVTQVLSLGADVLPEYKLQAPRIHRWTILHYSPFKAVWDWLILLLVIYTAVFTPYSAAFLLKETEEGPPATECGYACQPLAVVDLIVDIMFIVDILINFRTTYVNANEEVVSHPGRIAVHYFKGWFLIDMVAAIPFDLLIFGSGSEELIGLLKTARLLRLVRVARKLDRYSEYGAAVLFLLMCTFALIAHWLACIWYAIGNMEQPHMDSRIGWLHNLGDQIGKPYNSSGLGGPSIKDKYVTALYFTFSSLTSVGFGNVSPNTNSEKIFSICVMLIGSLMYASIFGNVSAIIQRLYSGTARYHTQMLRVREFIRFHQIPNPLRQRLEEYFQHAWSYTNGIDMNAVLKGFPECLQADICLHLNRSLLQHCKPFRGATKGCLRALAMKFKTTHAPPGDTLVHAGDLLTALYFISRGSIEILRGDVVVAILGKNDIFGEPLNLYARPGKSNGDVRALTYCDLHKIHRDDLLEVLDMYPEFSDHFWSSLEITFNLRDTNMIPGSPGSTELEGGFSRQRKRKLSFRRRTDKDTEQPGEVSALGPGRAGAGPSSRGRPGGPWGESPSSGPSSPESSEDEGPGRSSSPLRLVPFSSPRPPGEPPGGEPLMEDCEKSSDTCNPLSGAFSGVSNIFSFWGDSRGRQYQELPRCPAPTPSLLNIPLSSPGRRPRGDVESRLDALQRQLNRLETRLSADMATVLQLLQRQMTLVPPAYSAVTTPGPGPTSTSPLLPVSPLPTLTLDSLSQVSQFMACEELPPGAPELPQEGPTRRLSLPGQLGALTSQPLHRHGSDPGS
# Sequence of Luciferin 4-monooxygenase (P08659 whole entry): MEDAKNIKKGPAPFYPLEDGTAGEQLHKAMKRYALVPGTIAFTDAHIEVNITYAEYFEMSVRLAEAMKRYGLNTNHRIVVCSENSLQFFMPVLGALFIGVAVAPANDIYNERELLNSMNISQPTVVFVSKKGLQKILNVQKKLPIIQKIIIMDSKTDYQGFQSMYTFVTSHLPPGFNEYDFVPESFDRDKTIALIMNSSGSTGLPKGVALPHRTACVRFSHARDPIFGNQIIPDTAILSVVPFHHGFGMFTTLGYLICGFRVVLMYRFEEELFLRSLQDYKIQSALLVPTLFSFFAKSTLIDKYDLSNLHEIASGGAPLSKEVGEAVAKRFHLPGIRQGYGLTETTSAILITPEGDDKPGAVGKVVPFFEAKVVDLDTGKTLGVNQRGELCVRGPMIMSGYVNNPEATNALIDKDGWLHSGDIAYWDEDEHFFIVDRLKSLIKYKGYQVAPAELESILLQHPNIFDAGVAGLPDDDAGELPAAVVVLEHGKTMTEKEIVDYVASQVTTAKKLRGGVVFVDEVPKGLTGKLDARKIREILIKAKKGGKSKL
# Sequence of Cytochrome P450 2D6 (P10635 whole entry): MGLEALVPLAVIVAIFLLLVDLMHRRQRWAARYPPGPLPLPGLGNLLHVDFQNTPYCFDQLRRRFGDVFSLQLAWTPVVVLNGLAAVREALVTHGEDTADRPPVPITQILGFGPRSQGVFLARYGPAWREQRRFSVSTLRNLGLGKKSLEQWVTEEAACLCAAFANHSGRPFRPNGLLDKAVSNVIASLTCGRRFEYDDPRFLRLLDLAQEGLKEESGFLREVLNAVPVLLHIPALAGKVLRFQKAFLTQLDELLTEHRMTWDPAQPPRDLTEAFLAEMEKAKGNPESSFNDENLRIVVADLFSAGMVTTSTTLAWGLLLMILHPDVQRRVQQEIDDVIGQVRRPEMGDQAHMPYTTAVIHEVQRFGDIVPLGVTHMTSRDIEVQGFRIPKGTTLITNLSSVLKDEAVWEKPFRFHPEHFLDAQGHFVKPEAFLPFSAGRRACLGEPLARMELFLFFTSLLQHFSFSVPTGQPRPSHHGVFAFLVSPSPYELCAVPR
# Sequence of Nucleotide-binding oligomerization domain-containing protein 2 (Q9HC29 whole entry, the tested form may be a part): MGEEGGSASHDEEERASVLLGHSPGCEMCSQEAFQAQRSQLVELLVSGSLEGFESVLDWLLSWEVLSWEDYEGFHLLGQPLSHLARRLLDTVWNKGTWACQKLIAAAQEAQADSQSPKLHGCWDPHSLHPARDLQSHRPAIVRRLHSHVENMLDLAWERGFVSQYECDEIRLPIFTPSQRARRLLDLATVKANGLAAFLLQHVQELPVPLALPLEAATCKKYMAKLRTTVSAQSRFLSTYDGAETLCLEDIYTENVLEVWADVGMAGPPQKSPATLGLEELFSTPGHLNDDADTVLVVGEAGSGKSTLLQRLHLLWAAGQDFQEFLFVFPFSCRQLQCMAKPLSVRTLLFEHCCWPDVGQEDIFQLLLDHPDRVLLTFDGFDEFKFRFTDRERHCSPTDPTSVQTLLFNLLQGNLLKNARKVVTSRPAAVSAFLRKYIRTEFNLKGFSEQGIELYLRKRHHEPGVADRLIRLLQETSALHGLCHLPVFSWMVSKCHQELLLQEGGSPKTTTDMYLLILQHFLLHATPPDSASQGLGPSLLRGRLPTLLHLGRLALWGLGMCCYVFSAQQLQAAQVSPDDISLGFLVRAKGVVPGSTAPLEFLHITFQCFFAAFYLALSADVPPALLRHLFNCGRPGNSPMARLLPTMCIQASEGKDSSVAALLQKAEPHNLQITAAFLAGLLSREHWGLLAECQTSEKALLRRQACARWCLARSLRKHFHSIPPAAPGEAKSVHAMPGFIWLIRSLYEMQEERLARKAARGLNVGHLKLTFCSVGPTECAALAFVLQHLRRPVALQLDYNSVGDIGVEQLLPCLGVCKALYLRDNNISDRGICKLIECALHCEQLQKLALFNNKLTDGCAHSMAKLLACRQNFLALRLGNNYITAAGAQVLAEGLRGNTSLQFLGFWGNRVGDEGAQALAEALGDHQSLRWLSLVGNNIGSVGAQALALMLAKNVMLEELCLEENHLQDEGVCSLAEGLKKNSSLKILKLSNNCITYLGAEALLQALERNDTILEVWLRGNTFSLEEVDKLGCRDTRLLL
# Sequence of Cytochrome P450 2C9 (P11712 whole entry): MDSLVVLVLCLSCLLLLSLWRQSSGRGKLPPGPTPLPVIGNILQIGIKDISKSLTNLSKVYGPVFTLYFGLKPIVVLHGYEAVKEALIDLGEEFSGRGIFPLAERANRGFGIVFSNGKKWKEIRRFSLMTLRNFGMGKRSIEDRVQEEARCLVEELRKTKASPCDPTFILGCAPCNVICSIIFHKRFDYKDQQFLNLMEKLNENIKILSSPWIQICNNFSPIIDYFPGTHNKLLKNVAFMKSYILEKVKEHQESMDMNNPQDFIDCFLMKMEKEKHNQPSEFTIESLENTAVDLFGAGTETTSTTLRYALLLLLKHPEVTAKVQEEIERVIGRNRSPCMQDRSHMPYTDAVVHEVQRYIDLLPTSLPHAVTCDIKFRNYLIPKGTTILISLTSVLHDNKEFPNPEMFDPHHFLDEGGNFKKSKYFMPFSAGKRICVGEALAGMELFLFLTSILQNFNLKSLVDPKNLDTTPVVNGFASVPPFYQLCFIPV
compound,measurement,setting,value
COc1ccc(CC(=O)Nc2ccncc2Cl)cc1,IC50,HEK293 [1],14 µM (active)
same,IC50,HEK293 [2],> 20 µM (inactive)
same,AC50,"INS1; Rattus norvegicus, INS1",5.67 µM (active)
same,IC50,HEK293 [3],> 20 µM (inactive)
same,AC50,[4],2.13 µM (active)
same,AC50,[5],57.3 µM (active)
same,EC50,[6],14.9 µM (active)
same,EC50,HEK293 [7],4.73 µM (active)
same,AC50,[8],2.12 µM (active)
same,IC50,HEK293 [9],17.8 µM (inactive)
O=C(O)Cc1ccccc1C(=O)O [2-CARBOXYBENZENEACETIC ACID],IC50,Prothrombin,> 50 µM (not active)
COc1ccc(NC(=O)N2CCCCN3[C@@H](CO)[C@H](c4ccc(-c5ccccc5F)cc4)[C@@H]3C2)cc1,AC50,[10],2.72 µM (active)
CCCc1ccc(C(=O)O/N=C(\N)c2ccccn2)cc1,IC50,[11],22.1 µM (inactive)
same,IC50,[12],27.8 µM (not active)
same,EC50,[13],1.2 µM (active)
same,AC50,Paired box protein Pax-8,5.93 µM (active)
same,EC50,[14],407 nM (active)
COC(=O)c1cc(NC(=O)c2ccc(-c3ccccc3)cc2)ccc1Cl,IC50,[15],> 109 µM (inactive)
same,IC50,[16],> 83.3 µM (inactive)
C=CCn1cc(C(=O)NCc2ccc3c(c2)OCO3)c(=O)c2cc(S(=O)(=O)N(CC)CC)ccc21,IC50,Prothrombin,19.2 µM (active)
CCc1ccc(C(=O)CN(C#N)c2nc(C)cc(C)n2)cc1,AC50,[17],19.3 µM (active)
same,AC50,Cytochrome P450 3A4,25.1 µM (inconclusive)
same,AC50,Cytochrome P450 2C9,inconclusive
Cc1cc(C)nc(NCC(O)CNc2ccccc2Cl)n1 (configuration not stated),EC50,[18],> 20 µM (not active)
same,EC50,[19],> 20 µM (not active)
C[C@H](CO)N1C[C@H](C)[C@@H](CN(C)C(=O)Nc2ccc3c(c2)OCO3)Oc2cc(C#Cc3ccncc3)ccc2S1(=O)=O,AC50,[20],8.81 µM (active)
same,AC50,[21],5.21 µM (active)
same,AC50,[22],13.7 µM (active)
same,AC50,[23],47.5 µM (active)
same,AC50,[24],10.9 µM (active)
same,AC50,Paired box protein Pax-8,3.02 µM (active)
same,AC50,[25],5.8 µM (active)
Cc1ccc(S(=O)(=O)N2CCCCC2)cc1NC(=O)Cn1ncc(Cl)c(Cl)c1=O,AC50,[26],17.5 µM (active)
same,AC50,[27],10.4 µM (active)
same,AC50,[28],17.9 µM (active)
same,AC50,Paired box protein Pax-8,4.3 µM (active)
same,AC50,[29],6.21 µM (active)
same,AC50,[30],8.36 µM (active)
same,AC50,[31],7.53 µM (active)
same,AC50,A-375,23.7 µM (active)
same,AC50,[5],23.5 µM (active)
same,AC50,[32],2.6 µM (active)
same,AC50,[33],9.07 µM (active)
same,AC50,[8],4.32 µM (active)
Cc1ccc(S(=O)(=O)NCC(=O)N(CC(=O)NC2CCCC2)c2ccc3c(c2)OCCO3)cc1,IC50,[15],> 109 µM (inactive)
same,IC50,[16],> 83.3 µM (inactive)
CCOc1ccc2nc(N3C(=O)/C(=C/c4ccccc4)NC3=S)sc2c1,EC50,[34],440 nM (active)
same,EC50,[35],> 150 µM (inconclusive)
same,EC50,[36],3.03 µM (active)
Cc1ccc(-c2c[n+](-c3ccccc3)c3n2CCCS3)cc1,IC50,[11],17.4 µM (inactive)
same,IC50,[37],> 80 µM (inactive)
same,AC50,"INS1; Rattus norvegicus, INS1",2.26 µM (active)
same,AC50,INS1; ins1,1.92 µM (active)
same,EC50,[35],50.9 µM (active)
same,EC50,[36],0.709 µM (active)
O=C(NC(=S)Nc1ccccc1N1CCCC1)c1ccc([N+](=O)[O-])cc1,IC50,[38],44.6 µM (inactive)
same,EC50,[34],3240 nM (active)
same,IC50,Beta-galactosidase,> 66.6 µM (inactive)
Cc1c(NC(C)C)c(=O)n(-c2ccccc2)n1C [RAMIFENAZONE],AC50,Cytochrome P450 1A2,39.8 nM (inconclusive)
same,IC50,[39],> 40 µM (inactive)
same,AC50,Cytochrome P450 2D6,12.6 µM (inconclusive)
same,IC50,[40],> 40 µM (inactive)
